Measurements published in paper PMC10447463, “Data-mining unveils structure–property–activity correlation of viral infectivity enhancing self-assembling peptides” (Nature Communications, 2023).
Where two headings read alike, the source gives them in different places.

How the values were obtained:
[1] = system: HIV-1 infection of TZM-bl cells; test: HIV-1 infectivity enhancement assay, β-galactosidase luminescence; assay type: cell-based; conditions: for Rel-EFC / Log10 Infection Rel EFC: 1.3 µM peptide; for Rel-EFC: infection relative to EF-C (QCKIKQIINMWQ = 1); for Log10 Infection Rel EFC: log10 of infection relative to EF-C; for Log Infectivity: Fig. S7 panel A (plotted against β-sheet content), Log10 infection relative to EF-C, asymmetric std dev errors; for Log10 Infection Rel EF-C: HIV-1 infection of TZM-bl cells; for Log10 of Rel to EFC (Feb2021): Log10 of infection relative to EF-C, all peptides of FigS16; for Abs. Inf.: β-galactosidase luminescence
[2] = β-sheet content by ATR-FT-IR; assay type: physicochemical; conditions: Fig. S7 panel A; β-sheet content by ATR-FT-IR
How it was run: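 Conversion rate: fluorescamine fluorescence (ex 365/em 470 nm, 20 min RT) of 3 kDa filtrate versus unfiltered PNF, CR = 100 − 100 × filtrate/original intensity, triplicates. β-sheet content came from ATR FT-IR of lyophilized 1 mg/mL PNF powder, 64 scans.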

[3] = Zeta-potential measurement; assay type: physicochemical
How it was run: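 Peptides diluted from DMSO stock into PBS pH 7.4 to 1 mg/mL and aged 1 d at RT, then diluted into 1 mM aqueous KCl. Zeta potential derived from electrophoretic mobility via Smoluchowski; triplicates, averaged over two independent experiments.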

[4] = Turbidity, derived count rate of scattered light; assay type: physicochemical; conditions: for Count Rate / kcps: derived count rate of scattered light at 633 nm, 173°, from zeta-potential measurement, 0.1 mg/mL in 1 mM KCl after 1 d at 1 mg/mL in PBS, turbidity / microscopic aggregation, mean of triplicate
How it was run: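 Samples: 1 mg/mL in PBS pH 7.4 (from DMSO), 1 d at RT, then diluted in 1 mM KCl immediately before measurement. Triplicates, two independent runs averaged.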

[5] = Log10 of infection rate relative to EF-C, Figure 3A source data
[6] = infection rate relative to EF-C, log10, data of Figure 2D
[7] = infection rate relative to EF-C, log10, source data of Figure 2C
[8] = zeta potential of peptide assemblies
[9] = zeta-potential of peptide, source data of Figure 2C
[10] = zeta-potential of the peptide assemblies, mean, Figure 3A source data
[11] = Log10 of derived count rate of scattered light (turbidity)
[12] = log10 of derived count rate of scattered light (turbidity)
[13] = turbidity, Log10 of derived count rate of scattered light, Figure 3A source data

KIKIQIRGD
Rel-EFC [1]: 0,02 | Log10 Infection Rel EFC [1]: -1,68 | Log Infectivity ([1]; TZM-bl cells): -1.678 | Log10 Infection Rel EF-C [1, 5]: -1.68 | Log10 Infection Rel EF-C [1, 6]: -1.678 | Log10 Infection Rel EF-C [1, 7]: -1.678 | b -sheet / % [2]: 47.12% | Zeta-Pot. [3, 8]: 6.43 | Zeta-Potential / mV [3, 9]: 4.47 mV | Zeta-Potential / mV [3, 10]: 6.43 mV | Log10 Count Rate [4, 11]: 2.057 | Count Rate / kcps [4]: 114 kcps | Log10 Count Rate [4, 12]: 2.057 | Log10 Count Rate [4, 13]: 2.057

KIKIQIW
Rel-EFC [1]: 0,14 | Log10 Infection Rel EFC [1]: -0,85 | Log Infectivity ([1]; TZM-bl cells): -0.8533 | Log10 Infection Rel EF-C [1, 5]: -0.85 | Log10 Infection Rel EF-C [1, 6]: -0.8533 | Log10 Infection Rel EF-C [1, 7]: -0.8533 | Log10 of Rel to EFC (Feb2021) [1]: -0.85 | Abs. Inf. ([1]; absolute HIV-1 infection signal, TZM-bl cells): 4280 | b -sheet / % [2]: 49.1721% | Zeta-Pot. [3]: 12.5 | Zeta-Potential / mV [3, 9]: 11.255 mV | Zeta-Potential / mV [3, 10]: 12.5 mV | Log10 Count Rate [4, 11]: 2.161 | Count Rate / kcps [4]: 145 kcps | Log10 Count Rate [4, 12]: 2.161 | Log10 Count Rate [4, 13]: 2.161

KLKLKLQL
Rel-EFC [1]: 0,1 | Log10 Infection Rel EFC [1]: -1,01 | Log Infectivity ([1]; TZM-bl cells): -1.009 | Log10 Infection Rel EF-C [1, 5]: -1.01 | Log10 Infection Rel EF-C [1, 6]: -1.009 | Log10 Infection Rel EF-C [1, 7]: -1.009 | b -sheet / % [2]: 42.3363% | Zeta-Pot. [3, 8]: 8.39 | Zeta-Potential / mV [3, 9]: 8.477 mV | Zeta-Potential / mV [3, 10]: 8.39 mV | Log10 Count Rate [4, 11]: 1.632 | Count Rate / kcps [4]: 43 kcps | Log10 Count Rate [4, 12]: 1.632 | Log10 Count Rate [4, 13]: 1.632

KLKLQLL
Rel-EFC [1]: 0,01 | Log10 Infection Rel EFC [1]: -2,16 | Log Infectivity ([1]; TZM-bl cells): -2.156 | Log10 Infection Rel EF-C [1, 5]: -2.16 | Log10 Infection Rel EF-C [1, 6]: -2.156 | Log10 Infection Rel EF-C [1, 7]: -2.156 | b -sheet / % [2]: 39.56% | Zeta-Pot. [3, 8]: -4.93 | Zeta-Potential / mV [3, 9]: -3.1875 mV | Zeta-Potential / mV [3, 10]: -4.93 mV | Log10 Count Rate [4, 11]: 1.861 | Count Rate / kcps [4]: 73 kcps | Log10 Count Rate [4, 12]: 1.861 | Log10 Count Rate [4, 13]: 1.861

KVKVQVV
Rel-EFC [1]: 0,01 | Log10 Infection Rel EFC [1]: -2,04 | Log Infectivity ([1]; TZM-bl cells): -2.04 | Log10 Infection Rel EF-C [1, 5]: -2.04 | Log10 Infection Rel EF-C [1, 6]: -2.04 | Log10 Infection Rel EF-C [1, 7]: -2.04 | b -sheet / % [2]: 45.1% | Zeta-Pot. [3, 8]: -7.92 | Zeta-Potential / mV [3, 9]: -4.675 mV | Zeta-Potential / mV [3, 10]: -7.92 mV | Log10 Count Rate [4, 11]: 1.443 | Count Rate / kcps [4]: 28 kcps | Log10 Count Rate [4, 12]: 1.443 | Log10 Count Rate [4, 13]: 1.443

KVKVQVVV
Rel-EFC [1]: 0,04 | Log10 Infection Rel EFC [1]: -1,46 | Log Infectivity ([1]; TZM-bl cells): -1.455 | Log10 Infection Rel EF-C [1, 5]: -1.46 | Log10 Infection Rel EF-C [1, 6]: -1.455 | Log10 Infection Rel EF-C [1, 7]: -1.455 | b -sheet / % [2]: 45.8125% | Zeta-Pot. [3, 8]: 0.147 | Zeta-Potential / mV [3, 9]: 1.657 mV | Zeta-Potential / mV [3, 10]: 0.15 mV | Log10 Count Rate [4, 11]: 2.213 | Count Rate / kcps [4]: 163 kcps | Log10 Count Rate [4, 12]: 2.213 | Log10 Count Rate [4, 13]: 2.213

MKIKIQINM
Rel-EFC [1]: 0,27 | Log10 Infection Rel EFC [1]: -0,56 | Log Infectivity ([1]; TZM-bl cells): -0.5635 | Log10 Infection Rel EF-C [1, 5]: -0.56 | Log10 Infection Rel EF-C [1, 6]: -0.5635 | Log10 Infection Rel EF-C [1, 7]: -0.5635 | Log10 of Rel to EFC (Feb2021) [1]: -0.56 | b -sheet / % [2]: 38.6306% | Zeta-Pot. [3, 8]: 9.13 | Zeta-Potential / mV [3, 9]: 9.332 mV | Zeta-Potential / mV [3, 10]: 9.13 mV | Log10 Count Rate [4, 11]: 2.9918 | Count Rate / kcps [4]: 981 kcps | Log10 Count Rate [4, 12]: 2.9918 | Log10 Count Rate [4, 13]: 2.9918

MKIKIQINMWQ
Rel-EFC [1]: 0,42 | Log10 Infection Rel EFC [1]: -0,38 | Log Infectivity ([1]; TZM-bl cells): -0.378 | Log10 Infection Rel EF-C [1, 5]: -0.38 | Log10 Infection Rel EF-C [1, 6]: -0.378 | Log10 Infection Rel EF-C [1, 7]: -0.378 | Log10 of Rel to EFC (Feb2021) [1]: -0.38 | b -sheet / % [2]: 39.2% | Zeta-Pot. [3, 8]: 10.8 | Zeta-Potential / mV [3, 9]: 11.2 mV | Zeta-Potential / mV [3, 10]: 10.8 mV | Log10 Count Rate [4, 11]: 3.169 | Count Rate / kcps [4]: 1475 kcps | Log10 Count Rate [4, 12]: 3.169 | Log10 Count Rate [4, 13]: 3.169

QCKFKQFF
Rel-EFC [1]: 0,01 | Log10 Infection Rel EFC [1]: -1,91 | Log Infectivity ([1]; TZM-bl cells): -1.907 | Log10 Infection Rel EF-C [1, 5]: -1.91 | Log10 Infection Rel EF-C [1, 6]: -1.907 | Log10 Infection Rel EF-C [1, 7]: -1.907 | Abs. Inf. ([1]; absolute infection signal, HIV-1 on TZM-bl cells): 170 | Log10 Inf. rel. to EF-C ([1]; log10 of HIV-1 infection of TZM-bl cells relative to EF-C (EF-C = 0)): -1.907 | b -sheet / % [2]: 32.34% | Zeta-Pot. [3]: 4.94 | Zeta-Potential / mV [3, 9]: 3.089 mV | Zeta-Potential / mV [3, 10]: 4.94 mV | Log10 Count Rate [4, 11]: 2.353 | Count Rate / kcps [4]: 225 kcps | Log10 Count Rate [4, 13]: 2.353 | Log10 Count Rate ([4]; turbidity, log10 of derived count rate of scattered light): 2.353

RGDCKIKIQINM
Rel-EFC [1]: 0,24 | Log10 Infection Rel EFC [1]: -0,63 | Log Infectivity ([1]; TZM-bl cells): -0.6272 | Log10 Infection Rel EF-C [1, 5]: -0.63 | Log10 Infection Rel EF-C [1, 6]: -0.6272 | Log10 Infection Rel EF-C [1, 7]: -0.6272 | Log10 of Rel to EFC (Feb2021) [1]: -0.63 | b -sheet / % [2]: 43% | Zeta-Pot. [3, 8]: 11.3 | Zeta-Potential / mV [3, 9]: 12.35 mV | Zeta-Potential / mV [3, 10]: 11.3 mV | Log10 Count Rate [4, 11]: 3.2102 | Count Rate / kcps [4]: 1623 kcps | Log10 Count Rate [4, 12]: 3.2102 | Log10 Count Rate [4, 13]: 3.2102
